Measurements reported in US6498253B1, “Acylated aminophenylsulfonylureas, processes for their preparation and their use as herbicides and plant growth regulators” (priority 1994, dated 2002).

How the values were obtained:
[1] = tested on: Sinapis alba, Chrysanthemum segetum, Avena sativa, Stellaria media, Alopecurus myosuroides and Lolium multiflorum; experiment: Herbicidal action, pre-emergence (greenhouse pot test); assay type: in vivo; conditions: applied pre-emergence, 0.3 kg and less of active substance per hectare; rated visually after 3 to 4 weeks vs untreated controls
Excerpt: Seeds or pieces or rhizome of mono- and dicotyledon weed plants were laid out in sandy loam soil in plastic pots and covered with soil. The compounds according to the invention, formulated in the form of wettable powders or emulsion concentrates, were then applied to the surface of the covering soil as an aqueous suspension or emulsion in various dosages, with an amount of water applied, when converted, of 600 to 800 l/ha.
After the treatment, the pots were placed in a greenhouse and kept under good growth conditions for the weeds. The plant damage or emergence damage was rated visually after emergence of the test plants after a test period of 3 to 4 weeks in comparison with untreated controls.

[2] = tested on: Sinapis alba, Stellaria media, Alopecurus myosuroides and Lolium multiflorum, Chrysanthemum segetum and Avena sativa; experiment: Herbicidal action, post-emergence (greenhouse pot test); assay type: in vivo; conditions: applied postemergence in three-leaf stage, 0.3 kg or less of active substance per hectare; rated visually after about 3 to 4 weeks vs untreated controls
Experimental: Seeds or pieces of rhizome of mono- and dicotyledon weeds were laid out in sandy loam soil in plastic pots, covered with soil and grown in a greenhouse under good growth conditions. Three weeks after sowing, the test plants were treated in the three-leaf stage.
The compounds according to the invention, formulated as wettable powders or as emulsion concentrates, were sprayed onto the green parts of plants in various dosages with an amount of water applied of, when converted, 600 to 800 l/ha, and after the test plants had stood in a greenhouse for about 3 to 4 weeks under optimum growth conditions, the action of the preparations was rated visually in comparison with untreated controls. The compositions according to the invention also show a good herbicidal activity against a broad spectrum of economically important graminaceous weeds and broad-leafed weeds when applied post-emergence.

| Structure (SMILES) | melting point | herbicidal action, pre-emergence [1] | herbicidal action, post-emergence [2] |
| --- | --- | --- | --- |
| CCC(=O)Nc1ccc(C(=O)N(C)C)c(S(=O)(=O)NC(=O)Nc2nc(OC)cc(OC)n2)c1 | 135 to 140 °C (dec.) |  |  |
| COc1cc(OC)nc(NC(=O)[N-]S(=O)(=O)c2cc(NC=O)ccc2C(=O)N(C)C)n1.[Na+] [1 from Table 2] |  | very good herbicidal action |  |
| COc1cc(OC)nc(NC(=O)[N-]S(=O)(=O)c2cc(NC(C)=O)ccc2C(=O)N(C)C)n1.[Na+] [7 from Table 2] |  | very good herbicidal action |  |
| COc1cc(OC)nc(NC(=O)NS(=O)(=O)c2cc(NC=O)ccc2C(=O)N(C)C)n1 [8 from Table 1] |  | very good herbicidal action | very good herbicidal action |
| COc1cc(OC)nc(NC(=O)NS(=O)(=O)c2cc(NC(C)=O)ccc2C(=O)N(C)C)n1 [15 from Table 1] |  | very good herbicidal action | very good herbicidal action |
| COc1cc(OC)nc(NC(=O)[N-]S(=O)(=O)c2cc(NC(=O)C(C)C)ccc2C(=O)N(C)C)n1.[Na+] [16 from Table 2] |  | very good herbicidal action |  |
| COc1cc(OC)nc(NC(=O)[N-]S(=O)(=O)c2cc(NC(=O)C(F)(F)F)ccc2C(=O)N(C)C)n1.[Na+] [17 from Table 2] |  | very good herbicidal action |  |
| COC(=O)Nc1ccc(C(=O)N(C)C)c(S(=O)(=O)[N-]C(=O)Nc2nc(C)nc(OC)n2)c1.[Na+] [20 from Table 2] |  | very good herbicidal action |  |
| COC(=O)Nc1ccc(C(=O)N(C)C)c(S(=O)(=O)[N-]C(=O)Nc2nc(OC)cc(OC)n2)c1.[Na+] [21 from Table 2] |  | very good herbicidal action |  |
| CCC(=O)Nc1ccc(C(=O)N(C)C)c(S(=O)(=O)NC(=O)Nc2nc(OC)cc(OC)n2)c1 [22 from Table 1] |  | very good herbicidal action | very good herbicidal action |
| COC(=O)Nc1ccc(C(=O)N(C)C)c(S(=O)(=O)[N-]C(=O)Nc2nc(Cl)cc(OC)n2)c1.[Na+] [22 from Table 2] |  | very good herbicidal action |  |
| COc1cc(OC)nc(NC(=O)NS(=O)(=O)c2cc(NC(=O)C(C)C)ccc2C(=O)N(C)C)n1 [25 from Table 1] |  | very good herbicidal action | very good herbicidal action |
| CCOC(=O)Nc1ccc(C(=O)N(C)C)c(S(=O)(=O)[N-]C(=O)Nc2nc(OC)cc(OC)n2)c1.[Na+] [26 from Table 2] |  | very good herbicidal action |  |
| COc1cc(OC)nc(NC(=O)NS(=O)(=O)c2cc(NC(=O)C(C)(C)C)ccc2C(=O)N(C)C)n1 [30 from Table 1] |  | very good herbicidal action | very good herbicidal action |
| COc1cc(C)nc(NC(=O)NS(=O)(=O)c2cc(NC(=O)C(F)(F)F)ccc2C(=O)N(C)C)n1 [40 from Table 1] |  | very good herbicidal action | very good herbicidal action |
| COc1nc(NC(=O)NS(=O)(=O)c2cc(NC(=O)C(F)(F)F)ccc2C(=O)N(C)C)nc(OC)n1 [44 from Table 1] |  | very good herbicidal action | very good herbicidal action |
| COC(=O)Nc1ccc(C(=O)N(C)C)c(S(=O)(=O)NC(=O)Nc2nc(OC)cc(OC)n2)c1 [53 from Table 1] |  | very good herbicidal action | very good herbicidal action |
| COC(=O)Nc1ccc(C(=O)N(C)C)c(S(=O)(=O)NC(=O)Nc2nc(Cl)cc(OC)n2)c1 [55 from Table 1] |  | very good herbicidal action | very good herbicidal action |

| Structure (SMILES) | melting point | herbicidal action, pre-emergence [1] | herbicidal action, post-emergence [2] |
| --- | --- | --- | --- |
| COC(=O)Nc1ccc(C(=O)N(C)C)c(S(=O)(=O)NC(=O)Nc2nc(C)nc(OC)n2)c1 [58 from Table 1] |  | very good herbicidal action | very good herbicidal action |
| CCOC(=O)Nc1ccc(C(=O)N(C)C)c(S(=O)(=O)NC(=O)Nc2nc(OC)cc(OC)n2)c1 [59 from Table 1] |  | very good herbicidal action | very good herbicidal action |
| COc1cc(OC)nc(NC(=O)NS(=O)(=O)c2cc(NC(=O)OCCCl)ccc2C(=O)N(C)C)n1 [65 from Table 1] |  | very good herbicidal action | very good herbicidal action |
| CCNC(=O)Nc1ccc(C(=O)N(C)C)c(S(=O)(=O)NC(=O)Nc2nc(OC)cc(OC)n2)c1 [72 from Table 1] |  | very good herbicidal action | very good herbicidal action |
| COc1cc(OC)nc(NC(=O)NS(=O)(=O)c2cc(NS(C)(=O)=O)ccc2C(=O)N(C)C)n1 [77 from Table 1] |  | very good herbicidal action | very good herbicidal action |
| CNS(=O)(=O)Nc1ccc(C(=O)N(C)C)c(S(=O)(=O)NC(=O)Nc2nc(OC)cc(OC)n2)c1 [87 from Table 1] |  | very good herbicidal action | very good herbicidal action |
| COc1cc(OC)nc(NC(=O)NS(=O)(=O)c2cc(NC(=O)C3CC3)ccc2C(=O)N(C)C)n1 [115 from Table 1] |  | very good herbicidal action | very good herbicidal action |
| CCN(C)C(=O)c1ccc(NC=O)cc1S(=O)(=O)NC(=O)Nc1nc(OC)cc(OC)n1 [116 from Table 1] |  | very good herbicidal action | very good herbicidal action |
| COc1cc(OC)nc(NC(=O)NS(=O)(=O)c2cc(NC=O)ccc2C(=O)N(C)C)n1.[Na] [Example 1 from Table 2, N-[(4,6-dimethoxypyrimidin-2-yl)-aminocarbonyl]-2-dimethylaminocarbonyl-5-formylamino-benzenesulfonamide sodium salt] |  |  | very good herbicidal action |
| COc1cc(OC)nc(NC(=O)[N-]S(=O)(=O)c2cc(NC(C)=O)ccc2C(=O)N(C)C)n1.[Na+] [Example 7 from Table 2] |  |  | very good herbicidal action |
| CCC(=O)Nc1ccc(C(=O)N(C)C)c(S(=O)(=O)NC(=O)Nc2nc(OC)cc(OC)n2)c1.[Na] [Example 12 from Table 2, N-[(4,6-dimethoxypyrimidin-2-yl)-aminocarbonyl]-2-dimethylaminocarbonyl-5-propionylamino-benzenesulfonamide sodium salt] | 212 °C (dec.) |  | very good herbicidal action |
| COc1cc(OC)nc(NC(=O)[N-]S(=O)(=O)c2cc(NC(=O)C(C)C)ccc2C(=O)N(C)C)n1.[Na+] [Example 16 from Table 2] |  |  | very good herbicidal action |
| COc1cc(OC)nc(NC(=O)[N-]S(=O)(=O)c2cc(NC(=O)C(F)(F)F)ccc2C(=O)N(C)C)n1.[Na+] [Example 17 from Table 2] |  |  | very good herbicidal action |
| COC(=O)Nc1ccc(C(=O)N(C)C)c(S(=O)(=O)[N-]C(=O)Nc2nc(C)nc(OC)n2)c1.[Na+] [Example 20 from Table 2] |  |  | very good herbicidal action |
| COC(=O)Nc1ccc(C(=O)N(C)C)c(S(=O)(=O)NC(=O)Nc2nc(OC)cc(OC)n2)c1.[Na] [Example 21 from Table 2, N-[(4,6-dimethoxypyrimidin-2-yl)-aminocarbonyl]-2-dimethylaminocarbonyl-5-methoxycarbonylamino-benzenesulfonamide sodium salt] | 187 to 191 °C (dec.) |  | very good herbicidal action |
| COC(=O)Nc1ccc(C(=O)N(C)C)c(S(=O)(=O)[N-]C(=O)Nc2nc(Cl)cc(OC)n2)c1.[Na+] [Example 22 from Table 2] |  |  | very good herbicidal action |
| CCOC(=O)Nc1ccc(C(=O)N(C)C)c(S(=O)(=O)[N-]C(=O)Nc2nc(OC)cc(OC)n2)c1.[Na+] [Example 26 from Table 2] |  |  | very good herbicidal action |
